Reference: US20170334899A1, “AMINO-SUBSTITUTED ISOTHIAZOLES” (Bayer Pharma Aktiengesellschaft, priority 2014, published 2017)

Target: T1, human kinase Mps-1 (Homo sapiens, UniProt P33981)
T1 construct: N-terminally GST-tagged human full length recombinant Mps-1 kinase; GST (N); purchased Invitrogen, Karslruhe, Germany PV4071
T1 sequence (P33981 1-857): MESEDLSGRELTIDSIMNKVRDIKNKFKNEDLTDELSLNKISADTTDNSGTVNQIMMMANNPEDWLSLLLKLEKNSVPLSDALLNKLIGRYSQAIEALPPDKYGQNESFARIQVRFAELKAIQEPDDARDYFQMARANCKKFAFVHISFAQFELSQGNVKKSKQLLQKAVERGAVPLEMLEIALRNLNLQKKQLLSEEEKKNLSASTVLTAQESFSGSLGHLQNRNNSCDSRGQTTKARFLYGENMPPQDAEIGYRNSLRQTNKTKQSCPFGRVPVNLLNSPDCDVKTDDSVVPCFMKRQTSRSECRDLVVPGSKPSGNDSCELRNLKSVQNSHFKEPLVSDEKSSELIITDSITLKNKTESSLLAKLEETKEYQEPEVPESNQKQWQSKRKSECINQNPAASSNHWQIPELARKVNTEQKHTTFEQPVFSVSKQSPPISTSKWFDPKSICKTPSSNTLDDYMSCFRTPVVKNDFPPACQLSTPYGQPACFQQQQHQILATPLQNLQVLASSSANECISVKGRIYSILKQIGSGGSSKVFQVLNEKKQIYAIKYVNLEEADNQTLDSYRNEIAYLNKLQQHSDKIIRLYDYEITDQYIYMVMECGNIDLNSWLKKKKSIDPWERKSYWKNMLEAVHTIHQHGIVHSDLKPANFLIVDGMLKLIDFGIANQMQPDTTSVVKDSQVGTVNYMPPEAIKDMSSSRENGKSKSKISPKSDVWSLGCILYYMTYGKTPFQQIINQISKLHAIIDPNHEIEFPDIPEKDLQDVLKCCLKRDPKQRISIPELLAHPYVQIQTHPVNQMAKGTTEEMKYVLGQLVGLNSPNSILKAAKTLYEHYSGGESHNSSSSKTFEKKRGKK
Experiment: Mps-1 kinase assay (TR-FRET)
Format: biochemical
Conditions: Mps-1 TR-FRET kinase assay; avg; read-out: Mps1 avg (IC50 [mol/l])
Description: The human kinase Mps-1 phosphorylates a biotinylated substrate peptide. Detection of the phosphorylated product is achieved by time-resolved fluorescence resonance energy transfer (TR-FRET) from Europium-labelled anti-phospho-Serine/Threonine antibody as donor to streptavidin labelled with cross-linked allophycocyanin (SA-XLent) as acceptor. Compounds are tested for their inhibition of the kinase activity.
N-terminally GST-tagged human full length recombinant Mps-1 kinase (purchased from Invitrogen, Karslruhe, Germany, cat. no PV4071) was used. As substrate for the kinase reaction a biotinylated peptide of the amino-acid sequence biotin-Ahx-PWDPDDADITEILG (C-terminus in amide form, purchased from Biosyntan GmbH, Berlin) was used.
For the assay 50 nl of a 100-fold concentrated solution of the test compound in DMSO was pipetted into a black low volume 384we11 microtiter plate (Greiner Bio-One, Frickenhausen, Germany), 2 μl of a solution of Mps-1 in assay buffer [0.1 mM sodium-ortho-vanadate, 10 mM MgCl2,2 mM DTT, 25 mM Hepes pH 7.7, 0.05% BSA (w/v), 0.001% Pluronic F-127] were added and the mixture was incubated for 15 min at 22° C. to allow pre-binding of the test compounds to Mps-1 before the start of the kinase reaction. Then the kinase reaction was started by the addition of 3 μl of a solution of 16.7 μM adenosine-tri-phosphate (ATP, 16.7 μM=>final conc. in the 5 μl assay volume is 10 μM) and peptide substrate (1.67 μM=>final conc. in the 5 μl assay volume is 1 μM) in assay buffer and the resulting mixture was incubated for a reaction time of 60 min at 22° C. The concentration of Mps-1 in the assay was adjusted to the activity of the enzyme lot and was chosen appropriate to have the assay in the linear range, typical enzyme concentrations were in the range of about 0.5 nM (final conc. in the 5 μl assay volume). The reaction was stopped by the addition of 5 μl of a solution of TR-FRET detection reagents (100 mM Hepes pH 7.4, 0.1% BSA, 40 mM EDTA, 140 nM Streptavidin-XLent [#61GSTXLB, Fa. Cis Biointernational, Marcoule, France], 1.5 nM anti-phospho(Ser/Thr)-Europium-antibody [#AD0180, PerkinElmer LAS, Rodgau-Jugesheinn, Germany]. Instead of the 1.5 nM anti-phospho(Ser/Thr)-Europium-antibody a mixture of 2 nM unlabeled anti-phospho ser/thr-pro antibody MPM-2 [Millipore cat. #05-368] and 1 nM LANCE EU-W1024 labeled anti-mouse IgG antibody [Perkin-Elmer, product no. AD0077] can be used).
The resulting mixture was incubated 1 h at 22° C. to allow the binding of the phosphorylated peptide to the anti-phospho(Ser/Thr)-Europium-antibody. Subsequently the amount of phosphorylated substrate was evaluated by measurement of the resonance energy transfer from the Europium-labelled anti-phospho(Ser/Thr) antibody to the Streptavidin-XLent. Therefore, the fluorescence emissions at 620 nm and 665 nm after excitation at 350 nm was measured in a Viewlux TR-FRET reader (PerkinElmer LAS, Rodgau-Jugesheinn, Germany). The “blank-corrected normalized ratio” (a Viewlux specific readout, similar to the traditional ratio of the emissions at 665 nm and at 622 nm, in which blank and Eu-donor crosstalk are subtracted from the 665 nm signal before the ratio is calculated) was taken as the measure for the amount of phosphorylated substrate. The data were normalised (enzyme reaction without inhibitor=0% inhibition, all other assay components but no enzyme=100% inhibition).

`Cc1nsc(Nc2cnc(C(F)(F)F)cn2)c1C(=O)Nc1ccc(OC2CCNCC2)nc1` [Example 6, 3-Methyl-N-[6-(piperidin-4-yloxy)pyridin-3-yl]-5-{[5-(trifluoromethyl)pyrazin-2-yl]amino}-1,2-thiazole-4-carboxamide] and `CC(=O)N1CCC(Oc2ccc(NC(=O)c3c(C)nsc3Nc3cnc(C(F)(F)F)cn3)cn2)CC1` [Example 11, N-{6-[(1-Acetylpiperidin-4-yl)oxy]pyridin-3-yl}-3-methyl-5-{[5-(trifluoromethyl)-pyrazin-2-yl]amino}-1,2-thiazole-4-carboxamide] cannot be ordered by IC50: at least 20 µM for the first, at least 20 µM for the second.

`Cc1nsc(Nc2cnc(C(F)(F)F)cn2)c1C(=O)Nc1ccc(OC2CCN(CCF)CC2)nc1` [Example 7, N-(6-{[1-(2-Fluoroethyl)piperidin-4-yl]oxy}pyridin-3-yl)-3-methyl-5-{[5-(trifluoromethyl)pyrazin-2-yl]amino}-1,2-thiazole-4-carboxamide] and `Cc1nsc(Nc2cnc(C(F)(F)F)cn2)c1C(=O)Nc1ccc(OC2CCN(CCC(F)(F)F)CC2)nc1` [Example 10, 3-Methyl-5-{[5-(trifluoromethyl)pyrazin-2-yl]amino}-N-(6-{[1-(3,3,3-trifluoropropyl)-piperidin-4-yl]oxy}pyridin-3-yl)-1,2-thiazole-4-carboxamide] cannot be ordered by IC50: at least 20 µM for the first, at least 20 µM for the second.

`Cc1nsc(Nc2cnc(C(F)(F)F)cn2)c1C(=O)Nc1ccc(OC2CCN(CC(F)F)CC2)nc1` [Example 8, N-(6-{[1-(2,2-Difluoroethyl)piperidin-4-yl]oxy}pyridin-3-yl)-3-methyl-5-{[5-(trifluoromethyl)pyrazin-2-yl]amino}-1,2-thiazole-4-carboxamide] and `Cc1nsc(Nc2cnc(C(F)(F)F)cn2)c1C(=O)Nc1ccc(OC2CCN(CC(F)(F)F)CC2)nc1` [Example 9, -Methyl-N-(6-{[1-(2,2,2-trifluoroethyl)piperidin-4-yl]oxy}pyridin-3-yl)-5-{[5-(trifluoromethyl)pyrazin-2-yl]amino}-1,2-thiazole-4-carboxamide] cannot be ordered by IC50: at least 20 µM for the first, at least 20 µM for the second.

`Cc1nsc(Nc2cncc(C(F)(F)F)n2)c1C(=O)Nc1ccc(OC2CCN(C(=O)OC(C)(C)C)CC2)nc1` [Example 12, tert-Butyl 4-[(5-{[(3-methyl-5-{[6-(trifluoromethyl)pyrazin-2-yl]amino}-1,2-thiazol-4-yl)carbonyl]amino}pyridin-2-yl)oxy]piperidine-1-carboxylate] and `Cc1nsc(Nc2cnc(C(F)(F)F)cn2)c1C(=O)Nc1ccc(C(=O)OC(C)(C)C)cc1` [Example 96, tert-Butyl 4-{[(3-methyl-5-{[5-(trifluoromethyl)pyrazin-2-yl]amino}-1,2-thiazol-4-yl)carbonyl]amino}benzoate] cannot be ordered by IC50: at least 20 µM for the first, at least 20 µM for the second.

`Cc1nsc(Nc2cnc(C(F)(F)F)cn2)c1C(=O)Nc1ccc(C(=O)O)cc1` [Example 97, 4-{[(3-Methyl-5-{[5-(trifluoromethyl)pyrazin-2-yl]amino}-1,2-thiazol-4-yl)carbony]-amino}benzoic acid] and `Cc1nsc(Nc2ccc(C#N)cn2)c1C(=O)Nc1ccc(C(=O)OC(C)(C)C)cc1` [Example 98, tert-Butyl 4-[({5-[(5-cyanopyridin-2-yl)amino]-3-methyl-1,2-thiazol-4-yl}carbonyl)-amino]benzoate] cannot be ordered by IC50: at least 20 µM for the first, at least 20 µM for the second.

`Cc1nsc(Nc2cnc3ccccc3n2)c1C(=O)Nc1cccc(C(=O)NCC(=O)O)c1` [Example 99, N-[3-({[3-Methyl-5-(quinoxalin-2-ylamino)-1,2-thiazol-4-yl]carbonyl}amino)benzoy]-glycine] and `COC(=O)CNC(=O)c1cccc(NC(=O)c2c(C)nsc2Nc2cnc3ccccc3n2)c1` [Example 100, Methyl N-[3-({[3-methyl-5-(quinoxalin-2-ylamino)-1,2-thiazol-4-yl]carbonyl}amino)-benzoyl]glycinate] are within 1.5-fold of each other in IC50: 9 µM for the first, 12 µM for the second.

First: Cc1nsc(Nc2cnc3ccccc3n2)c1C(=O)Nc1cccc(C(=O)N2CCNCC2)c1 [Example 101, 3-Methyl-N-[3-(piperazin-1-ylcarbonyl)phenyl]-5-(quinoxalin-2-ylamino)-1,2-thiazole-4-carboxamide]
Second: Cc1nsc(Nc2cnc3ccccc3n2)c1C(=O)Nc1cccc(C(=O)N2CCN(C)CC2)c1 [Example 102, 3-Methyl-N-{3-[(4-methylpiperazin-1-yl)carbonyl]phenyl}-5-(quinoxalin-2-ylamino)-1,2-thiazole-4-carboxamide]
The IC50 of the first is lower: 18 µM for the first, at least 20 µM for the second. The first is the more potent here.

First: Cc1nsc(Nc2cnc3ccccc3n2)c1C(=O)Nc1cccc(C(=O)N[C@@H](CCC(N)=O)C(=O)O)c1 [Example 103, N^2-[3-({[3-Methyl-5-(quinoxalin-2-ylamino)-1,2-thiazol-4-yl]carbonyl}amino)-benzoyl]glutamine]
Second: Cc1nsc(Nc2cnc3ccccc3n2)c1C(=O)Nc1cccc(C(=O)N[C@H](C(=O)O)[C@@H](C)O)c1 [Example 105, N-[3-({[3-methyl-5-(quinoxalin-2-ylamino)-1,2-thiazol-4-yl]carbonyl}amino)-benzoyl]threonine]
The IC50 of the first is 2-fold higher: 13 µM for the first, 6.5 µM for the second. The second is the more potent here.

Going from `Cc1nsc(Nc2cnc3ccccc3n2)c1C(=O)Nc1cccc(C(=O)N[C@H](C(=O)O)[C@@H](C)OC(C)(C)C)c1` [Example 104, O-tert-Butyl-N-[3-({[3-methyl-5-(quinoxalin-2-ylamino)-1,2-thiazol-4-yl]-carbonyl}amino)benzoyl]threonine] to `Cc1nsc(Nc2cnc3ccccc3n2)c1C(=O)Nc1cccc(-c2nnc(C(C)(C)C)o2)c1` [Example 107, N-[3-(5-tert-Butyl-1,3,4-oxadiazol-2-yl)phenyl]-3-methyl-5-(quinoxalin-2-ylamino)-1,2-thiazole-4-carboxamide], the IC50 rises from 16 µM to at least 20 µM.

`Cc1noc(-c2cccc(NC(=O)c3c(C)nsc3Nc3cnc4ccccc4n3)c2)n1` [Example 106, 3-Methyl-N-[3-(3-methyl-1,2,4-oxadiazol-5-yl)phenyl]-5-(quinoxalin-2-ylamino)-1,2-thiazole-4-carboxamide] and `Cc1nsc(Nc2cnc3ccccc3n2)c1C(=O)Nc1cccc(-c2nc(C(C)(C)C)no2)c1` [Example 108, N-[3-(3-tert-Butyl-1,2,4-oxadiazol-5-yl)phenyl]-3-methyl-5-(quinoxalin-2-ylamino)-1,2-thiazole-4-carboxamide] cannot be ordered by IC50: at least 20 µM for the first, at least 20 µM for the second.
